According to patent US10766928B2, “Targeted conformationally-constrained kinked endosomal disrupting peptides” (priority 2012, dated 2020):
In brackets after ≈: the same amount, converted by molar mass. Non-standard residues stand in square brackets, D forms with d. Residues, ends and D or L forms follow the SMILES beside them. Aib = CC(C)(N)C(=O)O

Experiments:
[1] = tested on: Jurkat lymphocytes; conditions: read-out: Toxicity; Table 3; IC50, Jurkat, 48 h at 37° C.; footnote a: non-toxic and soluble in cell culture medium at this concentration
[2] = tested on: endosomes of Jurkat lymphocytes; experiment: Endosome disruption in Jurkat lymphocytes: release of carboxyfluorescein from disulfide probe Compound 2, flow cytometry; conditions: Table 2, 14 h; for Efficacy (% of 1): % of the effect of compound 1, calculated span of dose-response curve, ± standard deviation, Jurkat; for EC50: read-out: Potency, EC50 ± standard deviation, Jurkat lymphocytes, disulfide-linked fluorescent probe (2.5 μM)
Outline: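 Human Jurkat cells treated with compounds plus disulfide probe Compound 2 (2.5 μM) for 14 h at 37 °C. Cytoplasmic release of pH-sensitive fluorophore Compound 3 quantified by flow cytometry. IC50 by non-linear regression; efficacy as % fluorescence change relative to Compound 1 maximum (100%).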

[3] = Thermodynamic solubility in PBS (pH 7.4); assay type: physicochemical; conditions: phosphate buffered saline, pH 7.4, Table 3; PBS pH 7.4, 24 h at 22° C.; read-out: Solubility
From the text: Values in parentheses represent 95% confidence intervals. N.D., not determined.
Measurements represent duplicate or more replicates, with active peptides subjected to multiple replicates. ND: not determined. The peptide was non-toxic and soluble in cell culture medium at this concentration.

EC50 [2] | solubility thermodynamic at 24 h [3] | SMILES | IC50 [1] | Efficacy (% of 1) [2]
0.28 ± 0.1 µM | 5 ± 2 µM (≈ 9.7 µg/mL) | CC(C)[C@H](NC(=O)[C@@H](NC(=O)[C@@H]1CCCN1C(=O)[C@@H]1CCCN1C(=O)[C@H](Cc1ccc(O)cc1)NC(=O)[C@H](Cc1c[nH]c2ccccc12)NC(=O)[C@H](C)NC(=O)[C@H](Cc1ccc(O)cc1)NC(=O)[C@H](Cc1c[nH]c2ccccc12)NC(=O)[C@H](C)NC(=O)[C@H](Cc1ccc(O)cc1)NC(=O)[C@H](Cc1c[nH]c2ccccc12)NC(=O)C(C)(C)NC(=O)C(C)(C)NC(=O)C(C)(C)NC(=O)C(C)(C)N)C(C)C)C(N)=O [Compound 80] (H-[Aib][Aib][Aib][Aib]WYAWYAWYPPVV-NH2) | > 16 µM | 113 ± 4%
9 ± 6 µM | 3 ± 1 µM (≈ 5.82 µg/mL) | CC(C)[C@H](NC(=O)[C@@H](NC(=O)[C@@H]1CCCN1C(=O)[C@@H]1CCCN1C(=O)[C@H](Cc1ccc(O)cc1)NC(=O)[C@H](Cc1c[nH]c2ccccc12)NC(=O)[C@H](Cc1ccc(O)cc1)NC(=O)[C@H](Cc1c[nH]c2ccccc12)NC(=O)[C@H](C)NC(=O)[C@H](Cc1ccc(O)cc1)NC(=O)[C@H](Cc1c[nH]c2ccccc12)NC(=O)[C@H](C)NC(=O)C(C)(C)NC(=O)C(C)(C)NC(=O)C(C)(C)NC(=O)C(C)(C)N)C(C)C)C(N)=O [Compound 81] (H-[Aib][Aib][Aib][Aib]AWYAWYWYPPVV-NH2) | > 8 µM | 83 ± 13%
0.8 ± 0.2 µM | 2 ± 1 µM (≈ 3.96 µg/mL) | CC(=O)NC(C)(C)C(=O)NC(C)(C)C(=O)NC(C)(C)C(=O)NC(C)(C)C(=O)N[C@@H](Cc1c[nH]c2ccccc12)C(=O)N[C@@H](Cc1ccc(O)cc1)C(=O)N[C@@H](C)C(=O)N[C@@H](Cc1c[nH]c2ccccc12)C(=O)N[C@@H](Cc1ccc(O)cc1)C(=O)N[C@@H](C)C(=O)N[C@@H](Cc1c[nH]c2ccccc12)C(=O)N[C@@H](Cc1ccc(O)cc1)C(=O)N1CCC[C@H]1C(=O)N1CCC[C@H]1C(=O)N[C@H](C(=O)N[C@H](C(N)=O)C(C)C)C(C)C [Compound 82] (Ac-[Aib][Aib][Aib][Aib]WYAWYAWYPPVV-NH2) | > 16 µM | 85 ± 7%
